Counter-ions that a name gives are not always drawn.
Each compound was assayed on Aβ production in SK-N-BE(2) neuroblastoma cells (assay: Test Example 3: Aβ production inhibition in cell (Aβ40 ELISA, SK-N-BE(2))). Conditions: Homo sapiens, SKNBE2, 6 h, read-out: Test Example 3 IC50.

Compound	IC50 [µM]
CC1(C)Oc2ccc(NC(=O)c3ccc(Cl)cn3)cc2C2(COC(N)=N2)C12COC2 (centres unmarked) [Example 27, N-(2-amino-2′,2′-dimethyldispiro[1,3-oxazole-4,4′-chromene-3′,3″-oxetan]-6′-yl)-5-chloropyridine-2-carboxamide]	0.0094

Same assay, conditions: Homo sapiens, SKNBE2, 6 h, read-out: Test Example 3 IC50, SK-N-BE(2) cells, 6 hours, Aβ40 ELISA normalized by viability

Compound	IC50 [µM]
C[C@@H]1Oc2ccc(-c3cccnc3F)cc2[C@@]2(COC(N)=N2)C12COC2 (racemic) [RP 79]	0.45
COc1cncc(-c2ccc3c(c2)[C@@]2(COC(N)=N2)C2(COC2)[C@@H](C)O3)c1 (racemic) [RP 81]	0.51
CC1(C)Oc2ccc(-c3cncnc3)cc2C2(COC(N)=N2)C12COC2 (single isomer, unassigned) [RP 51b, 2′,2′-dimethyl-6′-(pyrimidin-5-yl)dispiro[1,3-oxazole-4,4′-chromene-3′,3″-oxetan]-2-amine]	0.072
CC#Cc1cncc(-c2ccc3c(c2)C2(COC(N)=N2)C2(CC2)CO3)c1 (single isomer, unassigned) [RP 52a, 6′-[5-(prop-1-yn-1-yl)pyridin-3-yl]dispiro[cyclopropane-1,3′-chromene-4′,4″-[1,3]oxazol]-2″-amine]	0.075
CC1(C)Oc2ccc(NC(=O)c3ccc(Cl)cn3)cc2[C@@]2(COC(N)=N2)C12COC2 [Example 218, N-[(4S)-2-amino-2′,2′-dimethyldispiro[1,3-oxazole-4,4′-chromene-3′,3″-oxetan]-6′-yl]-5-chloropyridine-2-carboxamide]	0.00078
CC1(C)Oc2ccc(NC(=O)c3ccc(Br)cn3)cc2[C@@]2(COC(N)=N2)C12COC2 [Example 219]	0.0022
CC1(C)Oc2ccc(NC(=O)c3ccc(Cl)cn3)cc2[C@@]2(COC(N)=N2)C12CC2 [Example 221]	0.00016
CC1(C)Oc2ccc(NC(=O)c3ccc(F)cn3)cc2[C@@]2(COC(N)=N2)C12CC2 [Example 222]	0.00062
COc1cnc(C(=O)Nc2ccc3c(c2)[C@@]2(COC(N)=N2)C2(CC2)C(C)(C)O3)cn1 [Example 223, N-[(4′R)-2″-amino-2′,2′-dimethyldispiro[cyclopropane-1,3′-chromene-4′,4″-[1,3]oxazol]-6′-yl]-5-me thoxypyrazine-2-carboxamide]	0.0031
CC1(C)Oc2ccc(NC(=O)c3cnc(C(F)F)cn3)cc2[C@@]2(COC(N)=N2)C12CC2 [Example 224, N-[(4′R)-2″-amino-2′,2′-dimethyldispiro[cyclopropane-1,3′-chromene-4′,4″-[1,3]oxazol]-6′-yl]-5-(difluoromethyl)pyrazine-2-carboxamide]	0.00063
COCc1cnn(-c2ccc3c(c2)C2(COC(N)=N2)C2(COC2)C2(CCC2)O3)c1 (centres unmarked) [RP 4]	7.2
NC1=NC2(CO1)c1cc(-c3cncnc3)ccc1OC1(CCC1)C21COC1 (centres unmarked) [RP 5]	0.59
CC1(C)Oc2ccc(Br)cc2C2(COC(N)=N2)C12COC2 (centres unmarked) [RP 6, 6′-bromo-2′,2′-dimethyldispiro[1,3-oxazole-4,4′-chromene-3′,3″-oxetan]-2-amine]	3.9
NC1=NC2(CO1)c1cc(Br)ccc1OC(CC1CC1)C21COC1 (centres unmarked) [RP 16b]	4.8
COCC#Cc1cncc(-c2ccc3c(c2)C2(COC(N)=N2)C2(COC2)CO3)c1 (centres unmarked) [RP 19, 6′-[5-(3-methoxyprop-1-yn-1-yl)pyridin-3-yl]dispiro[1,3-oxazole-4,4′-chromene-3′,3″-oxetan]-2-amine]	0.43
CC#Cc1cc(-c2ccc3c(c2)C2(COC(N)=N2)C2(COC2)CO3)ccn1 (centres unmarked) [RP 20]	0.58
CC#Cc1cc(-c2ccc3c(c2)C2(COC(N)=N2)C2(COC2)CO3)ncn1 (centres unmarked) [RP 21]	0.41
CC#Cc1cncc(-c2ccc3c(c2)C2(COC(N)=N2)C2(COC2)CO3)n1 (centres unmarked) [RP 22]	2.9
C#Cc1cncc(-c2ccc3c(c2)C2(COC(N)=N2)C2(COC2)CO3)c1 (centres unmarked) [RP 23]	0.9
COc1cccnc1Nc1ccc2c(c1)C1(COC(N)=N1)C1(COC1)CO2 (centres unmarked) [RP 26]	0.069
NC1=NC2(CO1)c1cc(NC(=O)c3ccc(F)cn3)ccc1OCC21CC1 (centres unmarked) [RP 31, N-(2″-aminodispiro[cyclopropane-1,3′-chromene-4′,4″-[1,3]oxazol]-6′-yl)-5-fluoropyridine-2-carboxamide]	0.061
COc1ccc(F)c(-c2ccc3c(c2)C2(COC(N)=N2)C2(COC2)CO3)c1 (centres unmarked) [RP 33]	0.95

Compound	IC50 [µM]
NC1=NC2(CO1)c1cc(-c3cc(Cl)cnc3F)ccc1OCC21COC1 (centres unmarked) [RP 34]	0.26
NC1=NC2(CO1)c1cc(-c3cncnc3)ccc1OCC21COC1 (centres unmarked) [RP 36]	0.81
NC1=NC2(CS1)c1cc(Br)ccc1OCC21COC1 (centres unmarked) [RP 41, 6′-bromodispiro[oxetane-3,3′-chromene-4′,4″-[1,3]thiazol]-2″-amine]	> 30
CC1(C)Oc2ccc(Br)cc2C2(CSC(N)=N2)C12COC2 (centres unmarked) [RP 42]	5.9
NC1=NC2(CO1)c1cc(Nc3ncccc3Cl)ccc1OCC21COC1 (centres unmarked) [RP 43, 6′-(3-chloropyridin-2-yl)aminodispiro[1,3-oxazole-4,4′-chromene-3′,3″-oxetane]-2-amine]	1.4
NC1=NC2(CO1)c1cc(Nc3ncccc3Cl)ccc1OC1(CCC1)C21COC1 (centres unmarked) [RP 44]	0.098
COc1cccnc1Nc1ccc2c(c1)C1(COC(N)=N1)C1(COC1)C1(CCC1)O2 (centres unmarked) [RP 45]	0.057
CC(C)Cc1ccc2c(c1)C1(COC(N)=N1)C1(COC1)C1(CCC1)O2 (centres unmarked) [RP 46, 6′-isobutyltrispiro[cyclobutane-1,2′-chromene-4′,4″-[1,3]oxazole-3′,3′″-oxetan]-2″-amine]	1.4
CCC(CC)Cc1ccc2c(c1)C1(COC(N)=N1)C1(COC1)C1(CCC1)O2 (centres unmarked) [RP 47]	1.4
NC1=NC2(CO1)c1cc(-c3cncc(C#CC4CC4)c3)ccc1OC1(CCC1)C21COC1 (centres unmarked) [RP 48, 6′-[5-(cyclopropylethynyl)pyridin-3-yl]trispiro[cyclobutane-1,2′chromene-4′,4″-[1,3]oxazole-3′,3′″-oxetan]-2″-amine]	0.69
CC1(C)Oc2ccc(-c3cncnc3)cc2C2(CSC(N)=N2)C12COC2 (centres unmarked) [RP 54, 2′,2′-dimethyl-6′-(pyrimidin-5-yl)dispiro[oxetane-3,3′-chromene-4′,4″-[1,3]thiazol]-2″-amine hydrochloride]	0.079
CC#Cc1ccnc(-c2ccc3c(c2)C2(COC(N)=N2)C2(COC2)CO3)c1 (centres unmarked) [RP 56]	0.74
NC1=NC2(CO1)c1cc(-c3cncc(OCC(F)(F)F)c3)ccc1OCC21CC1 (centres unmarked) [RP 58]	0.18
NC1=NC2(CO1)c1cc(-c3cncc(OCC(F)F)c3)ccc1OCC21CC1 (centres unmarked) [RP 59]	0.076
NC1=NC2(CO1)c1cc(-c3cncc(OC(F)F)c3)ccc1OCC21CC1 (centres unmarked) [RP 60]	0.16
NC1=NC2(CO1)c1cc(-c3cnc4[nH]ccc4c3)ccc1OCC21CC1 (centres unmarked) [RP 61, 6′-(1H-pyrrolo[2,3-b]pyridin-5-yl)dispiro[cyclopropane-1,3′-chromene-4′,4″-[1,3]oxazol]-2″-amine]	0.35
CCc1cncc(-c2ccc3c(c2)C2(COC(N)=N2)C2(CC2)CO3)c1 (centres unmarked) [RP 63]	3.3
NC1=NC2(CO1)c1cc(-c3cncc(OCC(F)(F)C(F)F)c3)ccc1OCC21CC1 (centres unmarked) [RP 64]	2.3
COc1ccnc(-c2ccc3c(c2)C2(COC(N)=N2)C2(COC2)C(C)(C)O3)c1 (centres unmarked) [RP 65, 6′-(4-methoxypyridin-2-yl)-2′,2′-dimethyldispiro[1,3-oxazole-4,4′-chromene-3′,3″-oxetan]-2-amine]	0.049
CC#Cc1cncc(-c2ccc3c(c2)C2(CSC(N)=N2)C2(COC2)CO3)c1 (centres unmarked) [RP 68]	0.5
CC1(C)Oc2ccc(-c3cncnc3)cc2C2(COC(N)=N2)C12COC2 (centres unmarked) [RP 69]	0.04
NC1=NC2(CO1)c1cc(-c3cncc(F)c3)ccc1OC1(CCC1)C21COC1 (centres unmarked) [RP 70]	0.96

Compound	IC50 [µM]
NC1=NC2(CO1)c1cc(-c3cccnc3F)ccc1OC1(CCC1)C21COC1 (centres unmarked) [RP 71]	0.11
COc1cncc(-c2ccc3c(c2)C2(COC(N)=N2)C2(COC2)C2(CCC2)O3)c1 (centres unmarked) [RP 72]	0.068
NC1=NC2(CO1)c1cc(-c3cc(Cl)cnc3F)ccc1OC1(CCC1)C21COC1 (centres unmarked) [RP 73]	0.07
Cc1cncc(-c2ccc3c(c2)C2(COC(N)=N2)C2(COC2)C2(CCC2)O3)c1 (centres unmarked) [RP 75, 6′-(5-methylpyridin-3-yl)trispiro[cyclobutane-1,2′-chromene-4′,4″-[1,3]oxazole-3′,3′″-oxetan]-2″-amine]	1.1
CC1(C)Oc2ccc(-c3cccnc3F)cc2C2(COC(N)=N2)C12COC2 (centres unmarked) [RP 82]	0.036
CCC1Oc2ccc(-c3cncnc3)cc2C2(COC(N)=N2)C12COC2 (centres unmarked) [RP 84]	0.41
NC1=NC2(CO1)c1cc(-c3cncnc3)ccc1OC1(CCCC1)C21COC1 (centres unmarked) [RP 85]	0.077
CC#Cc1cncc(-c2ccc3c(c2)C2(COC(N)=N2)C2(COC2)C(CC)O3)c1 (centres unmarked) [RP 86]	0.058
NC1=NC2(CO1)c1cc(-c3cncnc3)ccc1OC(C1CC1)C21COC1 (centres unmarked) [RP 88]	1.4
CCCC1Oc2ccc(-c3cncnc3)cc2C2(COC(N)=N2)C12COC2 (centres unmarked) [RP 91]	0.34
CC#Cc1cncc(-c2ccc3c(c2)C2(COC(N)=N2)C2(COC2)C(CCC)O3)c1 (centres unmarked) [RP 92]	0.037
CC(C)CC1Oc2ccc(-c3cncnc3)cc2C2(COC(N)=N2)C12COC2 (centres unmarked) [RP 93]	0.37
CC#Cc1cncc(-c2ccc3c(c2)C2(COC(N)=N2)C2(COC2)C(CCC(F)(F)F)O3)c1 (centres unmarked) [RP 96]	0.022
NC1=NC2(CO1)c1cc(-c3cncnc3)ccc1OCC21CCCO1 (centres unmarked) [RP 97]	2.6
NC1=NC2(CO1)c1cc(-c3cncc(C(F)(F)F)c3)ccc1OC1(CCC1)C21COC1 (centres unmarked) [RP 99]	1.9
NC1=NC2(CO1)c1cc(-c3cncnc3)ccc1OCC21CC1 (centres unmarked) [RP 100]	0.25
NC1=NC2(CO1)c1cc(-c3cncnc3)c(F)cc1OCC21CC1 (centres unmarked) [RP 102]	0.24
NC1=NC2(CO1)c1cc(-c3cccnc3F)ccc1OCC21CC1 (centres unmarked) [RP 103]	0.45
COc1cncc(-c2ccc3c(c2)C2(COC(N)=N2)C2(CC2)CO3)c1 (centres unmarked) [RP 105]	0.34
CCOc1cncc(-c2ccc3c(c2)C2(COC(N)=N2)C2(CC2)CO3)c1 (centres unmarked) [RP 106]	0.16

— patent US9242973B2, “Chromane compounds” (CoMentis, Inc., priority 2012, dated 2016)
